From US8722633B2, “Glycoside derivatives and uses thereof” (Novartis AG, priority 2011, dated 2014) come the findings set out here.

Test [1] has as its target T1, human sodium glucose co-transporter 2 (Homo sapiens, UniProt P31639).
T1 construct: expressed in transfected cells; host or cells: CHO-K1 (ATCC CCL-61) or HEK293 (ATCC CRL-1573), stably transfected with pZeoSV carrying the hSGLT2 cDNA
T1 sequence (P31639 1-672): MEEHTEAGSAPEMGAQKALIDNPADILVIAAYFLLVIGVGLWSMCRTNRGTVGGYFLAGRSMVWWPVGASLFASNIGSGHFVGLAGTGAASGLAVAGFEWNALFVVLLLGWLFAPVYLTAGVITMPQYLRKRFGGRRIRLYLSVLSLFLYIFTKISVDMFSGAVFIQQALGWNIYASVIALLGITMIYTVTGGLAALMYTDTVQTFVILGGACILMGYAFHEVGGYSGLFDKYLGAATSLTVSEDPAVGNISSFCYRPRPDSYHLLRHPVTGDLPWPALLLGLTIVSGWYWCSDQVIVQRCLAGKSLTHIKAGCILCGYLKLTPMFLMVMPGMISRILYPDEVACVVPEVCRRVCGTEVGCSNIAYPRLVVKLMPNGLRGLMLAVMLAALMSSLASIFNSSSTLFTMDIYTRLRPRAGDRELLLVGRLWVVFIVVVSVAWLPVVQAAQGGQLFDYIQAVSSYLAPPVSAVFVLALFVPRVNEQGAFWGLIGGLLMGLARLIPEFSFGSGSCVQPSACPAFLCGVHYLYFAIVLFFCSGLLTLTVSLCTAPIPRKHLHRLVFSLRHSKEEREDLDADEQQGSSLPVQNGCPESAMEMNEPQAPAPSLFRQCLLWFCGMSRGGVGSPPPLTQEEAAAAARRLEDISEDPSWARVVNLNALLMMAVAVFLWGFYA
Briefly: SGLT-2 assay: sodium-dependent 14C-AMG uptake in CHO-hSGLT2 or HEK-hSGLT2 cells. The test is classed as cell-based. Particulars: n = 1-4, read-out: SGLT2 IC50 nM (n = 1-4). As for the experimental part:
These cell lines transport ^14C-labelled alpha-methyl-glucopyranoside (^14C-AMG, Amersham) into the interior of the cell in sodium-dependent manner.
(§1) The SGLT-2 assay is carried out as follows: CHO-hSGLT2 cells are cultivated in Ham's F12 Medium (BioWhittaker) with 10% foetal calf serum and 250 μg/mL zeocin (Invitrogen), and HEK293-hSGLT2 cells are cultivated in DMEM medium with 10% foetal calf serum and 250 μg/mL zeocin (Invitrogen). The cells are detached from the culture flasks by washing twice with PBS and subsequently treating with trypsin/EDTA. After the addition of cell culture medium the cells are centrifuged, resuspended in culture medium and counted in a Casy cell counter. Then 40,000 cells per well are seeded into a white, 96-well plate coated with poly-D-lysine and incubated overnight at 37° C., 5% CO2. The cells are washed twice with 250 μl of assay buffer (Hanks Balanced Salt Solution, 137 mM NaCl, 5.4 mM KCl, 2.8 mM CaCl2, 1.2 mM MgSO4 and 10 mM HEPES (pH 7.4), 50 μg/mL of gentamycin). 250 μl of assay buffer and 5 μl of test compound are then added to each well and the plate is incubated for a further 15 minutes in the incubator. 5 μl of 10% DMSO are used as the negative control. The reaction is started by adding 5 μl of 14 C— AMG (0.05 μCi) to each well. After 2 hours' incubation at 37° C., 5% CO2, the cells are washed again with 250 μl of PBS […] and then lysed by the addition of 25 μl of 0.1 N NaOH (5 min. at 37° C.). 200 μl of MicroScint20 (Packard) are added to each well and incubation is continued for a further 20 min at 37° C. After this incubation the radioactivity of the ^14C-AMG absorbed is measured in a Topcount (Packard) using a ^14C scintillation program.

Another test has as its target T2, human SGLT1 (Homo sapiens, UniProt P13866).
T2 construct: the cDNA for hSGLTI (Genbank Ace. No. NM000343); expressed in transfected cells; host or cells: CHO-K1 or HEK293 cells expressing the hSGLT1 cDNA
T2 sequence (P13866 1-664): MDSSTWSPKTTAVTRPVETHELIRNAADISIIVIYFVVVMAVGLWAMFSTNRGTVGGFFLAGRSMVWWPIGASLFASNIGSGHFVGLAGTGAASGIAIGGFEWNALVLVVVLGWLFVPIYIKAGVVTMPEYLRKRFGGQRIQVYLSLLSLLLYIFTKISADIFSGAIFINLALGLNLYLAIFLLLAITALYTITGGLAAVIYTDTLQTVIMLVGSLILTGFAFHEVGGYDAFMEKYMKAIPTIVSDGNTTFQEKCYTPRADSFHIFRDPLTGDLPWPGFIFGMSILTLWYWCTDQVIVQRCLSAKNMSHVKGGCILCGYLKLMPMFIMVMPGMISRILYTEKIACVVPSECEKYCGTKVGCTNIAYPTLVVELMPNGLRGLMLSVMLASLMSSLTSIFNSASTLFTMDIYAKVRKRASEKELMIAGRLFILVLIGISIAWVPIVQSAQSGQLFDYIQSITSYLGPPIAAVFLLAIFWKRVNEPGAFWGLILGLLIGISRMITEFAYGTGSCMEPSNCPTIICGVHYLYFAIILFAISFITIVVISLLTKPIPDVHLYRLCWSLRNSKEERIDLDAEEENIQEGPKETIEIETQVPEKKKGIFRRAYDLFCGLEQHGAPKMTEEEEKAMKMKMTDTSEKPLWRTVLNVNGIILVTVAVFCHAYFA
The test can be described thus: SGLT1 assay: analogous 14C-AMG uptake test with hSGLT1 cDNA expressed in CHO-K1 or HEK293 cells. The test is classed as cell-based. Particulars: n = 1-4. As for the experimental part: as §1
To determine the selectivity with respect to human SGLT1 an analogous test is set up in which the cDNA for hSGLTI (Genbank Ace. No. NM000343) instead of hSGLT2 cDNA is expressed in CHO-K1 or HEK293 cells.

Consider `CSC1O[C@@H](c2ccc(C3CC3)c(Cc3ccc4c(c3)OCCO4)c2)[C@H](O)[C@@H](O)[C@@H]1O` (stereo partly drawn) [Example 1, (2S,3R,4R,5S)-2-[4-cyclopropyl-3-(2,3-dihydro-benzo[1,4]dioxin-6-ylmethyl)-phenyl]-6-methylsulfanyl-tetrahydro-pyran-3,4,5-triol], for which the IC50 in test [1] came out at 0.29 nM; on human SGLT1, 0.55 nM. With `CCc1ccc([C@@H]2O[C@H](SC)[C@@H](O)[C@H](O)[C@H]2O)cc1Cc1ccc2c(c1)OCCO2` [Example 1-1, (2S,3R,4R,5S,6R)-2-[3-(2,3-Dihydro-benzo[1,4]dioxin-6-ylmethyl)-4-ethyl-phenyl]-6-methylsulfanyl-tetrahydropyran-3,4,5-triol], the IC50 in test [1] amounted to 0.36 nM. On to `CS(=O)(=O)[C@H]1O[C@@H](c2ccc(C3CC3)c(Cc3ccc4c(c3)OCCO4)c2)[C@H](O)[C@@H](O)[C@@H]1O` [Example 2, (2S,3R,4R,5S)-2-[4-Cyclopropyl-3-(2,3-dihydro-benzo[1,4]dioxin-6-ylmethyl)-phenyl]-6-methanesulfonyl-tetrahydro-pyran-3,4,5-triol], for which the values for the IC50 (in test [1]; against human SGLT1) were 9.2 nM and 97 nM, respectively. For `CCc1ccc([C@@H]2O[C@H](S(C)(=O)=O)[C@@H](O)[C@H](O)[C@H]2O)cc1Cc1ccc2c(c1)OCCO2` [Example 2-1, (2S,3R,4R,5S,6R)-2-[3-(2,3-Dihydro-benzo[1,4]dioxin-6-ylmethyl)-4-ethyl-phenyl]-6-methanesulfonyl-tetrahydropyran-3,4,5-triol], in that order: 1.45 nM and 195 nM.

As usually defined, the IC50 is the point on the concentration scale where inhibition reaches its midpoint.
